The values that follow come from paper PMC2248166, “Quantitative peptide binding motifs for 19 human and mouse MHC class I molecules derived using positional scanning combinatorial peptide libraries” (Immunome Research, 2008).

The test concerns the target HLA A*3201 (Homo sapiens, UniProt P04439, A270S/D101S/D185E/E176V/E277Q/F133L/G103R/G107R/G231S/H175R/I121M/I218V/I322F/K168Q/L105A/L300P/L318F/M331R/P208A/P217A/Q94H/R106L/R138Q/S129P/T104I/T323A/T345S/V100E/V321M/V358M). Nature of the test: biochemical. The test is classed as binding.

Molecules are shown by their SMILES. Where a SMILES comes first, the peptide text is derived from it.

In general, IC50 refers to the concentration that gives 50% inhibition.

In the case of `CC(C)C[C@H](NC(=O)[C@H](CC(N)=O)NC(=O)[C@H](Cc1ccc(O)cc1)NC(=O)[C@H](Cc1ccc(O)cc1)NC(=O)[C@@H](NC(=O)[C@H](Cc1ccc(O)cc1)NC(=O)[C@H](Cc1ccccc1)NC(=O)[C@H](CC(C)C)NC(=O)[C@@H](N)CCCCN)C(C)C)C(=O)O` [3102.0343] (H-KLFYVYYNL-OH), the IC50 was 0.34 nM. Then `CC[C@H](C)[C@H](NC(=O)[C@@H]1CCCN1C(=O)[C@H](CC(C)C)NC(=O)[C@@H](NC(=O)[C@H](CC(N)=O)NC(=O)[C@H](Cc1ccc(O)cc1)NC(=O)[C@H](CCSC)NC(=O)[C@@H](NC(=O)[C@@H](N)Cc1ccc(O)cc1)[C@@H](C)CC)[C@@H](C)CC)C(=O)O` [3102.0384] (H-YIMYNILPI-OH), with 39 nM; and `CC[C@H](C)[C@H](NC(=O)[C@H](CC(N)=O)NC(=O)[C@@H](NC(=O)[C@@H](NC(=O)[C@H](Cc1ccccc1)NC(=O)[C@@H](NC(=O)[C@H](C)NC(=O)[C@H](CC(C)C)NC(=O)[C@H](C)N)[C@@H](C)O)[C@@H](C)O)C(C)C)C(=O)O` [3102.0344] (H-ALATFTVNI-OH), with 6.1 nM. `CC[C@H](C)[C@H](NC(=O)[C@@H](NC(=O)[C@@H]1CCCN1C(=O)[C@@H](NC(=O)[C@H](Cc1ccccc1)NC(=O)[C@H](CC(N)=O)NC(=O)[C@H](CCSC)NC(=O)[C@@H](NC(=O)[C@@H](N)CO)C(C)C)[C@@H](C)CC)[C@@H](C)CC)C(=O)O` [3102.0404] (H-SVMNFIPII-OH) gave an IC50 of 0.6 nM. Then `CC[C@H](C)[C@H](NC(=O)[C@H](CC(C)C)NC(=O)[C@H](CC(C)C)NC(=O)[C@H](Cc1ccccc1)NC(=O)[C@H](Cc1c[nH]cn1)NC(=O)[C@H](C)NC(=O)[C@H](CO)NC(=O)[C@@H](N)CCCCN)C(=O)N[C@@H](Cc1ccccc1)C(=O)O` [3102.0491] (H-KSAHFLLIF-OH), with 0.19 nM; and `CC[C@H](C)[C@H](N)C(=O)N[C@H](C(=O)N[C@@H](Cc1ccccc1)C(=O)N[C@@H](CC(=O)O)C(=O)N[C@H](C(=O)N[C@@H](Cc1ccc(O)cc1)C(=O)N[C@@H](Cc1ccccc1)C(=O)N[C@@H](C)C(=O)N[C@H](C(=O)O)[C@@H](C)CC)[C@@H](C)CC)[C@@H](C)CC` [3102.0346] (H-IIFDIYFAI-OH), with 0.93 nM; and `CC[C@H](C)[C@H](NC(=O)[C@@H](NC(=O)[C@@H](NC(=O)[C@H](CCCCN)NC(=O)[C@H](CC(N)=O)NC(=O)[C@H](CC(N)=O)NC(=O)[C@H](C)NC(=O)[C@H](CC(C)C)NC(=O)[C@@H](N)CCCNC(=N)N)C(C)C)[C@@H](C)O)C(=O)O` [3102.0434] (H-RLANNKVTI-OH), with 1.5 nM. For the molecule `CSCC[C@H](NC(=O)[C@@H](NC(=O)[C@@H](N)CCCCN)[C@@H](C)O)C(=O)N[C@@H](C)C(=O)N1CCC[C@H]1C(=O)N[C@H](C(=O)N[C@@H](Cc1c[nH]cn1)C(=O)N[C@H](C(=O)N[C@@H](Cc1ccc(O)cc1)C(=O)O)[C@@H](C)O)C(C)C` [3102.0458] (H-KTMAPVHTY-OH), the IC50 stood at 4.6 nM.

`CC[C@H](C)[C@H](NC(=O)[C@@H](NC(=O)[C@H](CC(C)C)NC(=O)[C@H](CO)NC(=O)[C@H](C)NC(=O)CNC(=O)[C@H](CC(N)=O)NC(=O)[C@H](CO)NC(=O)[C@@H](N)CC(C)C)[C@@H](C)O)C(=O)O` [3102.0383] (H-LSNGASLTI-OH): half-maximal inhibition (IC50) was put at 74 nM. Turning to `CC[C@H](C)[C@H](NC(=O)[C@@H](NC(=O)[C@H](Cc1ccc(O)cc1)NC(=O)[C@H](CC(C)C)NC(=O)[C@@H](N)CCCCN)[C@@H](C)O)C(=O)N[C@H](C(=O)N[C@@H](CO)C(=O)N[C@H](C(=O)N[C@@H](CC(C)C)C(=O)O)[C@@H](C)O)C(C)C` [3102.0508] (H-KLYTIVSTL-OH), half-maximal inhibition (IC50) required 7.1 nM.

`CC[C@H](C)[C@H](NC(=O)[C@H](CO)NC(=O)[C@@H](NC(=O)[C@H](CCCCN)NC(=O)CNC(=O)[C@H](Cc1ccccc1)NC(=O)[C@H](Cc1ccccc1)NC(=O)[C@@H](NC(=O)[C@@H](N)CCCNC(=N)N)[C@@H](C)CC)[C@@H](C)O)C(=O)O` [3102.0433] (H-RIFFGKTSI-OH) registered an IC50 of 1.3 nM.

`CC(C)C[C@H](NC(=O)CNC(=O)[C@H](C)NC(=O)[C@@H](NC(=O)[C@H](C)N)[C@@H](C)O)C(=O)N[C@@H](Cc1c[nH]cn1)C(=O)N[C@@H](CC(C)C)C(=O)NCC(=O)N[C@@H](Cc1ccccc1)C(=O)O` [3102.0295] (H-ATAGLHLGF-OH) displayed an IC50 of 1.7 nM. This IC50 and that of the molecule before are within 1.5-fold of each other. Then `CC[C@H](C)[C@H](NC(=O)[C@@H](NC(=O)[C@H](CC(N)=O)NC(=O)[C@H](Cc1ccccc1)NC(=O)[C@H](Cc1ccccc1)NC(=O)[C@@H](NC(=O)[C@@H](NC(=O)[C@@H](NC(=O)[C@@H](N)CCCCN)C(C)C)C(C)C)[C@@H](C)CC)[C@@H](C)O)C(=O)O` [3102.0430] (H-KVVIFFNTI-OH), with 8.3 nM.

As for `CC[C@H](C)[C@H](NC(=O)[C@H](CCC(=O)O)NC(=O)[C@H](CS)NC(=O)[C@@H](NC(=O)[C@@H](N)CO)[C@@H](C)CC)C(=O)N[C@H](C(=O)N[C@@H](Cc1ccc(O)cc1)C(=O)N[C@@H](CO)C(=O)N[C@@H](Cc1ccccc1)C(=O)O)C(C)C` [3102.0440] (H-SICEIVYSF-OH), the IC50 was determined as 0.35 nM.

`CC(C)C[C@H](NC(=O)[C@H](CO)NC(=O)[C@H](CC(C)C)NC(=O)[C@@H](NC(=O)[C@H](CC(C)C)NC(=O)[C@H](Cc1c[nH]cn1)NC(=O)[C@H](CC(N)=O)NC(=O)[C@H](CC(C)C)NC(=O)[C@H](C)N)C(C)C)C(=O)O` [3102.0469] (H-ALNHLVLSL-OH) displayed an IC50 of 41 nM.

With `CSCC[C@H](NC(=O)[C@@H](N)CCCCN)C(=O)N[C@@H](CC(=O)O)C(=O)N[C@@H](CC(N)=O)C(=O)NCC(=O)N[C@H](C(=O)N[C@@H](CC(C)C)C(=O)N[C@@H](CCC(=O)O)C(=O)N[C@@H](Cc1ccccc1)C(=O)O)[C@@H](C)O` [3102.0365] (H-KMDNGTLEF-OH), the IC50 was determined as 0.92 nM. The molecule `CC[C@H](C)[C@H](NC(=O)[C@H](CCC(=O)O)NC(=O)[C@H](Cc1ccccc1)NC(=O)[C@H](CC(N)=O)NC(=O)[C@@H]1CCCN1C(=O)[C@H](CC(N)=O)NC(=O)[C@H](Cc1ccccc1)NC(=O)[C@@H](NC(=O)[C@@H](N)CC(C)C)[C@@H](C)O)C(=O)O` [3102.0377] (H-LTFNPNFEI-OH) displayed an IC50 of 5.2 nM. Against the preceding molecule, the IC50 is about 5.7-fold higher. For the molecule `CC[C@H](C)[C@H](NC(=O)[C@H](C)NC(=O)[C@H](Cc1ccc(O)cc1)NC(=O)[C@H](CO)NC(=O)[C@H](Cc1c[nH]cn1)NC(=O)[C@H](Cc1ccccc1)NC(=O)[C@H](CC(C)C)NC(=O)[C@H](CC(C)C)NC(=O)[C@@H](N)CC(C)C)C(=O)O` [3102.0379] (H-LLLFHSYAI-OH), 11 nM corresponded to half-maximal inhibition (IC50). Then `CC[C@H](C)[C@H](NC(=O)[C@@H](NC(=O)[C@H](Cc1ccc(O)cc1)NC(=O)[C@H](CO)NC(=O)[C@@H](N)CCCCN)[C@@H](C)O)C(=O)N[C@@H](CCCNC(=N)N)C(=O)N[C@H](C(=O)N[C@@H](Cc1ccccc1)C(=O)N[C@@H](Cc1ccccc1)C(=O)O)C(C)C` [3102.0345] (H-KSYTIRVFF-OH), with 1.1 nM.

As to `CC[C@H](C)[C@H](N)C(=O)N[C@H](C(=O)N[C@@H](CO)C(=O)N[C@H](C(=O)N[C@H](C(=O)N[C@@H](CO)C(=O)N[C@@H](CC(C)C)C(=O)N[C@H](C(=O)N[C@H](C(=O)O)[C@@H](C)CC)C(C)C)[C@@H](C)CC)C(C)C)[C@@H](C)CC` [3102.0334] (H-IISVISLVI-OH), the IC50 was 47 nM.
